Source: patent publication US12539292B2, “BRM targeting compounds and associated methods of use” (Arvinas Operations, Inc., priority 2018, dated 2026)
Where two headings read alike, the source gives them in different places.

Biological target: T1, BRM (Homo sapiens, UniProt P51531)
T1 construct: In-Cell Western Screen of BRM Degradation in SW1573 Cells; endogenous in cells; host or cells: SW1573
Test: In-cell Western screen of BRM degradation in SW1573 cells (Dmax and DC50)
Type: cell-based
In short: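 SW1573 cells were treated overnight (18-20 hours) with compound at 0.1% final DMSO. They were then PFA-fixed, permeabilised with Triton X-100 and immunostained with 800 nm/680 nm secondary antibodies. BRM signal was quantified by LI-COR in-cell Western imaging to derive Dmax and DC50.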

[1] = BRM degradation, SW1573 cells, Table 2D, read-out: *DC50
[2] = BRM degradation, SW1573 cells, Table 2D, read-out: **Dmax (%) (% degraded)

T1 sequence (P51531 whole entry): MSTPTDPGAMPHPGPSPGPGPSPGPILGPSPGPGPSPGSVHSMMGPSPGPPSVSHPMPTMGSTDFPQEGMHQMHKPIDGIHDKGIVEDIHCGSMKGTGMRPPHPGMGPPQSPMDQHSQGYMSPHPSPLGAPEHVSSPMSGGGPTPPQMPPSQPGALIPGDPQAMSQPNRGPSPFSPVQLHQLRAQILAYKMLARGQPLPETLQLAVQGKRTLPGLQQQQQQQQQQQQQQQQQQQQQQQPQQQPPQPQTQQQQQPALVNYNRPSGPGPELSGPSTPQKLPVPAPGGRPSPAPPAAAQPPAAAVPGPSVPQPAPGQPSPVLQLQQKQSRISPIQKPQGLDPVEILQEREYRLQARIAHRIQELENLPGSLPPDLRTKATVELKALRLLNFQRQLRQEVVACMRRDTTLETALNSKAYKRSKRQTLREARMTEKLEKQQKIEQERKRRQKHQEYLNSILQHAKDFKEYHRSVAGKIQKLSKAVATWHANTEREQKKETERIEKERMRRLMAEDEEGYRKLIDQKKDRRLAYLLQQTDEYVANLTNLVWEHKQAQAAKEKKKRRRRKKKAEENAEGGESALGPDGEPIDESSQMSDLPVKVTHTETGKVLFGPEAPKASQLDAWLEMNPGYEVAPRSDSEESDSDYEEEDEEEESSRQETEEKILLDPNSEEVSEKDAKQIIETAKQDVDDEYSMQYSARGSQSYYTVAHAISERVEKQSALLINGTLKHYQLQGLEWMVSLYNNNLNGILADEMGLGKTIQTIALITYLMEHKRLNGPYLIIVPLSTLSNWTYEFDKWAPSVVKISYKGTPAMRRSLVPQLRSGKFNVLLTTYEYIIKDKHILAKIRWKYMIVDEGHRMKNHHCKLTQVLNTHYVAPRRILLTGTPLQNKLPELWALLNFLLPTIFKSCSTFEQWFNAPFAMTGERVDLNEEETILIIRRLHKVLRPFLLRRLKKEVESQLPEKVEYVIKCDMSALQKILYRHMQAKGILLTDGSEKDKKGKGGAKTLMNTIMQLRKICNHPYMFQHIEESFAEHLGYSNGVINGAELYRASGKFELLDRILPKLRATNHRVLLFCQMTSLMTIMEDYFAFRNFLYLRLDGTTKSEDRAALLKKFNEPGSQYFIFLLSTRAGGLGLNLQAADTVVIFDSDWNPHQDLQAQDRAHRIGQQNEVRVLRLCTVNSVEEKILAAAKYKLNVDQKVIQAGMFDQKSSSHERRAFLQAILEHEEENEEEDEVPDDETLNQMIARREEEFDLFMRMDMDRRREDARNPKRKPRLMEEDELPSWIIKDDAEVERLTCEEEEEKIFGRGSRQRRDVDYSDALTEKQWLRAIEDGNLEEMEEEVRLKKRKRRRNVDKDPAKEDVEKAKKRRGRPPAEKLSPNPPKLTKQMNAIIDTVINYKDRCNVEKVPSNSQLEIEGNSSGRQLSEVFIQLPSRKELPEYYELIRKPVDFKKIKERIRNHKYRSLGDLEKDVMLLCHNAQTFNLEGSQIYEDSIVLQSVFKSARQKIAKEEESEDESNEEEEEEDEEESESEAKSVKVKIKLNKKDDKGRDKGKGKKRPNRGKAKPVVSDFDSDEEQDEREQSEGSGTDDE

SMILES	DC50 [1] [nM]	Dmax [2] [%]	other results
CC(C)[C@H](C(=O)N1C[C@H](O)C[C@H]1C(=O)N[C@@H](C)c1ccc(-c2nccn2C)cc1)c1cc(OCCN2CCN(CCOc3cc(N4C5CCC4CN(c4cc(-c6ccccc6O)nnc4N)C5)ccn3)CC2)no1 [compound 159, (2S,4R)-1-((2S)-2-(3-(2-(4-(2-((4-(3-(3-amino-6-(2-hydroxyphenyl)pyridazin-4-yl)-3,8-diazabicyclo[3.2.1]octan-8-yl)pyridin-2-yl)oxy)ethyl)piperazin-1-yl)ethoxy)isoxazol-5-yl)-3-methylbutanoyl)-4-hydroxy-N-((S)-1-(4-(1-methyl-1H-imidazol-2-yl)phenyl)ethyl)pyrrolidine-2-carboxamide]			DC50 (BRM degradation, SW1573 cells, read-out: DC50): > 30 nM; Dmax (BRM degradation, SW1573 cells, tested at the top concentration of between 0.3 and 10 μM, read-out: Dmax (%) (% degraded)): < 50%
Cc1ncsc1-c1ccc([C@H](C)NC(=O)[C@@H]2C[C@@H](O)CN2C(=O)[C@H](c2cc(OCCCOc3cc(N4C5CCC4CN(c4cc(-c6ccccc6O)nnc4N)C5)ccn3)no2)C(C)C)cc1 [compound 613, (2S,4R)-1-((2S)-2-(3-(3-((4-(3-(3-amino-6-(2-hydroxyphenyl)pyridazin-4-yl)-3,8-diazabicyclo[3.2.1]octan-8-yl)pyridin-2-yl)oxy)propoxy)isoxazol-5-yl)-3-methylbutanoyl)-4-hydroxy-N-((S)-1-(4-(4-methylthiazol-5-yl)phenyl)ethyl)pyrrolidine-2-carboxamide]	> 30		
Cc1ncsc1-c1ccc([C@H](C)NC(=O)[C@@H]2C[C@@H](O)CN2C(=O)[C@@H](c2cc(OCC[C@H]3CCN(C[C@H]4C[C@H](Oc5cc(N6C7CCC6CN(c6cc(-c8ccccc8O)nnc6N)C7)ccn5)C4)C[C@H]3C)no2)C(C)C)cc1 (racemic) [compound 566, (2S,4R)-1-((2R)-2-(3-(2-((3S,4R)-1-(((1r,3S)-3-((4-(3-(3-amino-6-(2-hydroxyphenyl)pyridazin-4-yl)-3,8-diazabicyclo[3.2.1]octan-8-yl)pyridin-2-yl)oxy)cyclobutyl)methyl)-3-methylpiperidin-4-yl)ethoxy)isoxazol-5-yl)-3-methylbutanoyl)-4-hydroxy-N-((S)-1-(4-(4-methylthiazol-5-yl)phenyl)ethyl) pyrrolidine-2-carboxamide]	< 2.5	> 75	
Cc1ncsc1-c1ccc([C@H](C)NC(=O)[C@@H]2C[C@@H](O)CN2C(=O)[C@@H](c2cc(OCCN3CCC(O[C@H]4C[C@H](OCCN5CCOC6(CCN(c7cc(-c8ccccc8O)nnc7N)CC6)C5)C4)CC3)no2)C(C)C)cc1 [compound 359, (2S,4R)-1-((R)-2-(3-(2-(4-((1r,3R)-3-(2-(9-(3-amino-6-(2-hydroxyphenyl)pyridazin-4-yl)-1-oxa-4,9-diazaspiro[5.5]undecan-4-yl)ethoxy)cyclobutoxy)piperidin-1-yl)cthoxy)isoxazol-5-yl)-3-methylbutanoyl)-4-hydroxy-N-((S)-1-(4-(4-methylthiazol-5-yl)phenyl)ethyl)pyrrolidine-2-carboxamide]			Dmax (SW1573, % degraded, when tested at the top concentration of between 0.3 and 10 μM, read-out: BRM Dmax (%)): > 75%; DC50 (target protein degradation, read-out: BRM DC50): < 2.5 nM
Cc1ncsc1-c1cc(F)c([C@H](C)NC(=O)[C@@H]2C[C@@H](O)CN2C(=O)[C@@H](c2cc(OCCC3CCN(C[C@H]4C[C@H](Oc5cc(N6C7CCC6CN(c6cc(-c8ccccc8O)nnc6N)C7)ccn5)C4)CC3)no2)C(C)C)cc1F [compound 552, (2S,4R)-1-((2R)-2-(3-(2-(1-(((1r,3R)-3-((4-(3-(3-amino-6-(2-hydroxyphenyl)pyridazin-4-yl)-3,8-diazabicyclo[3.2.1]octan-8-yl)pyridin-2-yl)oxy)cyclobutyl)methyl)piperidin-4-yl)ethoxy)isoxazol-5-yl)-3-methylbutanoyl)-N-((S)-1-(2,5-difluoro-4-(4-methylthiazol-5-yl)phenyl)ethyl)-4-hydroxypyrrolidine-2-carboxamide]	< 2.5	> 75	
